In experiment [1] the target is T1, TBP1 (Homo sapiens, UniProt P19438).
T1 construct: soluble extracellular domain of TNF receptor type 1, p55; host or cells: CHO
T1 sequence (P19438 41-201 limits assumed): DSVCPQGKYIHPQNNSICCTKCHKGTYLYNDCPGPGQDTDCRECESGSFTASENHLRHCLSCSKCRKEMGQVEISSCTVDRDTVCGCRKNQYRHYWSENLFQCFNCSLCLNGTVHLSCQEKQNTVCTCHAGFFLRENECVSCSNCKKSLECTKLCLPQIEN
The experiment in a line: Binding of TBP1 to peptides on beads, ELISA with soluble substrate (pNPP, O.D. at 405 nm). A general note: ELISA stands for enzyme-linked immunosorbent assay.

The subject of experiment [2] is rabbit immunoglobulins. The experiment in a line: Immunostaining of library beads containing N-DSer-DLys-LVal to verify specificity. The format is binding. The protocol:
7. First screening of the polystyrene peptide library with TBP1. One quarter (400 µl packed) of the total number of beads were blocked with 5% FBS in PBS (1 ml for 45 minutes), to avoid nonspecific binding, and incubated with TBP1 (1 ml at a concentration of 10µg/ml in FBS/PBS for 45 minutes) followed by polyclonal rabbit anti-TBP1 (1:500 in FBS/PBS, 1 ml for 1 hour) and alkaline phosphatase conjugated goat anti-rabbit Ig antibodies (1:2000 in FBS/PBS, 1 ml for 40 minutes). The signal was generated by BCIP/NBT substrate (12 ml in 9 cm petri dish; further details as in 5 above). More than 50 stained beads were selected and three of them were subjected to sequencing. […] The BCIP/NBT substrate that we used in order to stain the beads could not be destained by any treatment that we tried (organic solvents, urea, SDS, NaOH, boiling, sonication and combinations of all of the above), and we therefore decided to use another alkaline phosphatase substrate which could be readily destained. […]

For experiment [3], the system named is Immunoglobulins from other animal species and from humans. Briefly: Immunostaining of library beads containing N-DSer-DLys-LVal to verify specificity, other immunoglobulins. Type of experiment: binding.
The test system of experiment [4] is Monoclonal antibody to human β-endorphin. Briefly: Staining of beads with anti-endorphin McAb clone 3-E7 (alkaline phosphatase/BCIP). Type of experiment: binding, mouse. The following applies: antibody 200 ng/ml, BCIP 2 hours. The protocol: Staining of the beads was performed using the following steps (all incubation steps were performed with continuous mixing of the beads): • a. Washes of the beads with wash buffer. • b. Incubation of the beads with blocking buffer for 45 minutes to block non-specific interactions. • c. Incubation of the beads with the monoclonal antibody to human β-endorphin diluted to 200 ng/ml in blocking buffer for 40 minutes. • d. Six washes with wash buffer. • e. Incubation of the beads with the polyclonal rabbit antibodies against mouse IgG conjugated with alkaline phosphatase, diluted 1:1000 in blocking buffer for 40 minutes. • f. Six washes with wash buffer and one wash with Tris (25mM), NaC1 (125 mM), Tween (0.1%). • g. Incubation of the beads with BCIP diluted to 500 ug/ml in 0.1M Tris pH 9.0, for 2 hours. • h. Two washes with H2O, transfer of the beads to petri dishes and observation for blue stained beads (using a stereomicroscope).

On to N-DAla-DGlu-LMet, for which, in experiment [1] (relative to background, peptide on around 100,000 beads, soluble substrate), the OD result was “ten times higher than background”. Also, the “OD in presence of the TBP1” value in experiment [1] (relative to the antibodies only) was “four times higher”. In addition, in experiment [1] (without TBP1), the “response with antibodies alone” value was “lack of response”.

On to N-DSer-DLys-LVal, for which the “recognition of rabbit immunoglobulins” value in experiment [2] (from both rabbit anti-TBP1 antiserum and normal rabbit serum) is “specifically recognized”. In addition, the “Immunostaining performed with and without TBP1” value in experiment [2] (surface staining) is “specificity to the antibodies”. Further, the “recognition of immunoglobulins from other animal species and from humans” value in experiment [3] is reported as “not recognized”.

Consider “n-His-Pro-Tyr-Pro-Pro (HPYPP; on TentaGel beads; printed: His-Pro-Tyr-Pro-Pro) [Model HPYPP]”, for which the “Number of Blue-stained Beads” value in experiment [4] is on record as “none of the beads”.

On to n-Tyr-Gly-Gly-Phe-Leu [Model YGGFL], for which, in experiment [4], the “Number of Blue-stained Beads” value was “most of the beads”.

Source of the values: patent publication EP0639584B1, “Preparation and screening of highly diverse peptide libraries for binding activity” (INTERPHARM LABORATORIES LTD., priority 1993, dated 1995).
